Experiments:
[1] = biological target: T1, G810S mutant RET kinase (N-Terminal GST-tagged recombinant human G810S, aa-658-end) (Homo sapiens, UniProt P07949, G810S); assay: RET enzyme assay (HTRF KinEASE TK), G810S; type: biochemical; settings: 1 mM ATP, 60 min incubation at 22° C.
T1 construct: recombinant human G810S (aa-658-end); GST (N); made in house; host or cells: insect cells
T1 sequence (P07949 658-1114 G810S limits assumed): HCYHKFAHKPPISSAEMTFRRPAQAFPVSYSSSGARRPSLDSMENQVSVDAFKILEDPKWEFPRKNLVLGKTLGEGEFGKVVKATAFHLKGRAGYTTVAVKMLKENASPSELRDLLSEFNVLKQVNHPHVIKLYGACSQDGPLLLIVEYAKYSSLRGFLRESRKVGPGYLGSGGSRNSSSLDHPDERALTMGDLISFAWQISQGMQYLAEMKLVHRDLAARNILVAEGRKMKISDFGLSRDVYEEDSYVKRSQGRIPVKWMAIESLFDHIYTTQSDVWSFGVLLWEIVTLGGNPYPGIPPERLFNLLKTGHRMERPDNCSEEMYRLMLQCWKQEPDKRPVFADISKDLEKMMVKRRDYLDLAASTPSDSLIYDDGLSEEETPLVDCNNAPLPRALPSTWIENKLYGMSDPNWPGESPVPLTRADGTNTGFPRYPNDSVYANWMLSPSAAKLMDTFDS
Description: Assay A: RET Enzyme Assay
Compounds of formulas I, II, or III are screened for their ability to inhibit wildtype, V804M, and G810S mutant RET kinase using CisBio's HTRF® KinEASE™TK assay technology. N-terminal GST tagged recombinant human RET cytoplasmic domain (aa 658-end) from Eurofins ([…]; Catalog No. 14-570M) or N-terminal GST tagged recombinant human V804M mutant RET cytoplasmic domain (aa 658-end) from Millipore (1.25 nM enzyme; Catalog No. 14-760) or N-Terminal GST-tagged recombinant human G810S (aa-658-end) (1.25 nM Enzyme; produced in insect cells) is incubated with 62.5 nM TK-substrate biotin (CisBio, part of Catalog No. 62TK0PEC) and 1 mM ATP along with test compound (0.4% final DMSO in the assay) in a 1× Cisbio enzymatic buffer consisting of […], 5 mM MgCl2, 0.04% BSA and 0.05% Tween20 in a volume of 10 μL. Compounds are typically prepared in a threefold serial dilution in DMSO and added to the assay to give the appropriate final concentration. After a 40-60 min (40 min for V804M, 60 min for WT and G810S) incubation at 22° C., the reaction is quenched by adding quench solution (10 μL) containing 7.8 nM Streptavidine-XL665 and 0.5×TK-ab-Cryptate in HTRF detection buffer (all from CisBio, part of Cat. No. 62TK0PEC). After a 60-80 min incubation (60 minutes for WT, 80 minutes for V804M and G810S) at 22° C., the extent of reaction is determined using a PHERastar plate reader via HTRF detection at excitation/emission 337/665 nm. Percent of inhibition is calculated with 0% inhibition referring to control conditions containing no compound (0.4% DMSO only) and 100% inhibition represented by conditions containing no enzyme. The % inhibition values are fit to a 4 parameter logistic curve, and the determined IC50 value is defined as the estimated concentration of inhibitor at the inflexion point of the fitted curve.

[2] = biological target: T2, KIF5B-RET mutant form G810S in HEK293 cells (Homo sapiens, UniProt P07949, G810S); assay: RET cell assay (In-Cell Western, phospho-RET Y1062), G810S; type: cell-based; settings: HEK293, doxycycline-induced KIF5B-RET G810S, 1 hr compound treatment; read-out: EC50, inhibition of intracellular autophosphorylation of RET at tyrosine 1062, G810S cells
T2 construct: expressed in transfected cells; host or cells: HEK293; the other entry of the earlier key: KIF5B (P33176, Kinesin-1 heavy chain)
T2 sequence (P07949 713-1063 G810S limits assumed): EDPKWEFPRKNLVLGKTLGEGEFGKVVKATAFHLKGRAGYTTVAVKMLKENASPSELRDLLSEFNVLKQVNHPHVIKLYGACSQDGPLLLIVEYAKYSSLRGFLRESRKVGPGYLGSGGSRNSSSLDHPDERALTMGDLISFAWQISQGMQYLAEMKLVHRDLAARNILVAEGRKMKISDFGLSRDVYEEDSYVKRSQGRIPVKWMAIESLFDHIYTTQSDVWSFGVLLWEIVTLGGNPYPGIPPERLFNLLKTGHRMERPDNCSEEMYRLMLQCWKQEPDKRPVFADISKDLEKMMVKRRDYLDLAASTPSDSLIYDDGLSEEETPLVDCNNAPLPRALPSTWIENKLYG
Description: Compounds of formulas (I), (II), and (III) are screened for their ability to inhibit the intracellular autophosphorylation of RET at tyrosine 1062 as detected by In-Cell Western. HEK293 cells containing a doxycycline-inducible plasmid for inducible expression of KIF5B-RET WT and RET mutant forms V804M and G810S are seeded at 25,000 cells/well into black poly-D-lysine pre-coated 384-well plates (Corning, Catalog No. 356697). Expression of KIF5B-RET is induced with doxycycline at 1 μg/mL and cells are incubated at 37° C. overnight. Compounds are prepared in a threefold serial dilution in DMSO before further diluting 1:100 in media prior to the addition to the cells (0.1% final DMSO concentration). Compound treatment is performed for 1 hr at 37° C. followed by fixation of cells with 4% formaldehyde for 20 min at RT and cell permeabilisation with ice-cold MeOH for 10 min at RT. Cells are incubated with Intercept® blocking buffer (Li—COR, Catalogue No. 927-70010) for 1 hr at RT. Incubation with primary antibodies against human phospho-RET (Y1062) (R&D, Catalogue No. AF5009, 1/250 dilution) and human glyceraldehyde-3-phosphate dehydrogenase (clone 6C5, Merck, Catalog No. MAB374, 1/1000 dilution) are performed overnight at 4° C. Incubation with secondary antibodies IRDye® 800CW goat anti-rabbit IgG (Li—COR, Catalogue No. 926-32211, 1/1000 dilution) and IRDye® 680CW goat anti-mouse IgG (Li—COR, Catalogue No. 926-68070, 1/1000 dilution) are performed for 1 hr at RT. All antibody dilutions are done in Intercept® blocking buffer containing 0.05% Tween20. After washing cells with PBS-T (Cell Signaling technology, Catalogue No. 9809), the images are acquired on a Li—COR Odyssey LCx at 700 and 800 nm. Percent of DMSO control is calculated with 100% signal referring to control conditions containing no compound (0.4% DMSO only) and 0% signal represented by conditions containing control compound. The % of DMSO control values are fit to a 4 parameter logistic curve, and the determined EC50 value is defined as the estimated concentration of inhibitor at the inflexion point of the fitted curve.

SMILES | IC50 [1] | EC50 [2]
CC(C(=O)Nc1cc(CC(C)(C)C)no1)c1ccc(-c2nn(C(C)C)c(N)c2C(N)=O)cc1 (single isomer, unassigned; isomer 1) [Example 1, 5-Amino-3-[4-(1-[[3-(2,2-dimethylpropyl)-1,2-oxazol-5-yl]carbamoyl]ethyl)phenyl]-1-isopropylpyrazole-4-carboxamide, Isomer 1] | < 100 nM | < 100 nM
CCC(C)(C)c1cc(NC(=O)C(C)c2ccc(-c3nn(C(C)C)c(N)c3C(N)=O)cc2)on1 (single isomer, unassigned; isomer 1) [Example 15, 5-Amino-1-isopropyl-3-[4-(1-[[3-(2-methylbutan-2-yl)-1,2-oxazol-5-yl]carbamoyl]ethyl)phenyl]pyrazole-4-carboxamide, Isomer 1] | < 100 nM | < 100 nM
CC(C(=O)Nc1cc(C(C)(C)C(F)(F)F)no1)c1ccc(-c2nn(C(C)C)c(N)c2C(N)=O)cc1 (single isomer, unassigned; isomer 1) [Example 17, 5-Amino-1-isopropyl-3-[4-(1-[[3-(1,1,1-trifluoro-2-methylpropan-2-yl)-1,2-oxazol-5-yl]carbamoyl]ethyl)phenyl]pyrazole-4-carboxamide, Isomer 1] | < 100 nM | < 100 nM
CC(C(=O)Nc1cc(C2(C)CC2)no1)c1ccc(-c2nn(C(C)C)c(N)c2C(N)=O)cc1 (single isomer, unassigned; isomer 1) [Example 35, 5-Amino-1-isopropyl-3-[4-(1-[[3-(1-methylcyclopropyl)-1,2-oxazol-5-yl]carbamoyl]ethyl)phenyl]pyrazole-4-carboxamide, Isomer 1] | < 100 nM | < 100 nM
CC(C(=O)Nc1cc(-c2ccc(Cl)cc2Cl)no1)c1ccc(-c2nn(C(C)C)c(N)c2C(N)=O)cc1 (single isomer, unassigned; isomer 1) [Example 45, 5-Amino-3-[4-(1-[[3-(2,4-dichlorophenyl)-1,2-oxazol-5-yl]carbamoyl]ethyl)phenyl]-1-isopropylpyrazole-4-carboxamide, Isomer 1] | < 100 nM | < 100 nM
CC(C(=O)Nc1cc(C(C)(C)C(F)(F)F)on1)c1ccc(-c2nn(C(C)C)c(N)c2C(N)=O)cc1 (single isomer, unassigned; isomer 1) [Example 81, 5-Amino-1-isopropyl-3-[4-(1-[[5-(1,1,1-trifluoro-2-methylpropan-2-yl)-1,2-oxazol-3-yl]carbamoyl]ethyl)phenyl]pyrazole-4-carboxamide, Isomer 1] | < 100 nM | < 100 nM
CC(C(=O)Nc1cc(C2CC(C)(C)C2)no1)c1ccc(-c2nn(C(C)C)c(N)c2C(N)=O)cc1 (single isomer, unassigned; isomer 1) [Example 98, 5-Amino-3-[4-[2-[[3-(3,3-dimethylcyclobutyl)isoxazol-5-yl]amino]-1-methyl-2-oxo-ethyl]phenyl]-1-isopropyl-pyrazole-4-carboxamide, Isomer 1] | < 100 nM | < 100 nM
CCC(C)(C)c1cc(NC(=O)C(C)c2ccc(-c3nn(C(C)C)c(N)c3C(N)=O)cc2)no1 (single isomer, unassigned; isomer 2) [Example 52, 5-Amino-1-isopropyl-3-[4-(1-[[5-(2-methylbutan-2-yl)-1,2-oxazol-3-yl]carbamoyl]ethyl)phenyl]pyrazole-4-carboxamide, Isomer 2] | < 100 nM | < 100 nM
CC(C(=O)Nc1cc(C(C)(C)C(F)(F)F)on1)c1ccc(-c2nn(C(C)C)c(N)c2C(N)=O)nc1 (single isomer, unassigned; isomer 2) [Example 64, 5-Amino-1-isopropyl-3-[5-(1-[[5-(1,1,1-trifluoro-yl)-1,2-oxazol-3-2-methylpropan-2-yl]carbamoyl]ethyl)pyridin-2-yl]pyrazole-4-carboxamide, Isomer 2] | < 100 nM | < 100 nM
CCC(C)(C)c1cc(NC(=O)C(C)c2ccc(-c3nn(C(C)C)c(N)c3C(N)=O)nc2)no1 (single isomer, unassigned; isomer 2) [Example 66, 5-Amino-1-isopropyl-3-[5-(1-[[5-(2-methylbutan-2-yl)-1,2-oxazol-3-yl]carbamoyl]ethyl)pyridin-2-yl]pyrazole-4-carboxamide, Isomer 2] | < 100 nM | < 100 nM
CC(C(=O)Nc1cc(C(C)(C)CC(F)(F)F)on1)c1ccc(-c2nn(C(C)C)c(N)c2C(N)=O)nc1 (single isomer, unassigned; isomer 2) [Example 68, 5-Amino-1-isopropyl-3-(5-(1-oxo-1-((5-(4,4,4-trifluoro-2-methylbutan-2-yl)isoxazol-3-yl)amino)propan-2-yl)pyridin-2-yl)-1H-pyrazole-4-carboxamide, Isomer 2] | < 100 nM | < 100 nM
CC(C(=O)Nc1cc(C(C)(C)C(C)(F)F)on1)c1ccc(-c2nn(C(C)C)c(N)c2C(N)=O)nc1 (single isomer, unassigned; isomer 2) [Example 70, 5-Amino-3-[5-(1-[[5-(3,3-difluoro-2-methylbutan-2-yl)-1,2-oxazol-3-yl]carbamoyl]ethyl)pyridin-2-yl]-1-isopropylpyrazole-4-carboxamide, Isomer 2] | < 100 nM | < 100 nM
CC(C(=O)Nc1cc(C(C)(C)C(C)(F)F)on1)c1ccc(-c2nn(C(C)C)c(N)c2C(N)=O)cc1 (single isomer, unassigned; isomer 2) [Example 76, 5-Amino-3-[4-(1-[[5-(3,3-difluoro-2-methylbutan-2-yl)-1,2-oxazol-3-yl]carbamoyl]ethyl)phenyl]-1-isopropylpyrazole-4-carboxamide, Isomer 2] | < 100 nM | < 100 nM

— patent US11613533B2, “Compounds useful for inhibiting RET kinase” (Eli Lilly and Company, priority 2020, dated 2023)
